This is an account of results in patent publication US10562891B2, “Quinazolinones as PARP14 inhibitors” (Ribon Therapeutics Inc., priority 2017, dated 2020).

In general, IC50 refers to the concentration that inhibits the measured activity by half. High values mean lower potency, low ones higher potency.

This experiment deals with catalytic domain of human PARP14 (Homo sapiens (Human), UniProt Q460N5). The experiment can be described thus: Enzymatic assay for inhibition of PARP14 (DELFIA, auto-modification with biotin-NAD). In kind it is biochemical. The note with it: auto-modification of PARP14 by biotin-NAD, 50 nM PARP14, 3 μM biotin-NAD. The essentials:
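DELFIA auto-modification read-out: europium-streptavidin bound to biotin-NAD incorporated onto nickel-captured His-TEV PARP14 catalytic domain. Compound preincubated 30 min, then 50 nM enzyme with 3 μM biotin-NAD reacted 3 h, all at 25 °C, pH 8, then NAD quench. Percent inhibition normalized to rucaparib/DMSO wells, fitted (4- or 3-parameter) for IC50.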

Counter-ions that a name gives are not always drawn.

Chain of catalytic domain of human PARP14 (Q460N5 1611-1801): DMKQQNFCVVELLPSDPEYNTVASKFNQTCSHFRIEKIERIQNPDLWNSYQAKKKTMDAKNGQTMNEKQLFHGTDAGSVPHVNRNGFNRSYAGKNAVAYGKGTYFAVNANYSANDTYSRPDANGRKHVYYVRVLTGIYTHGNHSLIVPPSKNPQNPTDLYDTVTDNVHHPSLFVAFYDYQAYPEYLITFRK

`Cc1cccc2c(=O)[nH]c(CSC3CCNC3)nc12` (centres unmarked) [Example 15, 8-Methyl-2-((pyrrolidin-3-ylthio)methyl)quinazolin-4(3H)-one trifluoroacetate] displayed a half-inhibitory concentration (IC50) of 1000 to 10000 nM. Next, `Cc1c(F)ccc2c(=O)[nH]c(CSC3CCOCC3)nc12` [Example 33, 7-Fluoro-8-methyl-2-(((tetrahydro-2H-pyran-4-yl)thio)methyl)quinazolin-4(3H)-one]: under 1000 nM. Under `CS(=O)(=O)CCN1CCC(SCc2nc3cc(NC4CCCC4)cc(F)c3c(=O)[nH]2)CC1` [Example 276, 7-(Cyclopentylamino)-5-fluoro-2-(((1-(2-(methylsulfonyl)ethyl)piperidin-4-yl)thio)methyl)quinazolin-4(3H)-one] stands under 1000 nM; under `Cc1cccc2c(=O)[nH]c(CSC3CCN(Cc4nccn4C)CC3)nc12` [Example 138, 8-Methyl-2-(((1-((1-methyl-1H-imidazol-2-yl)methyl)piperidin-4-yl)thio)methyl)quinazolin-4(3H)-one bistrifluoroacetate], under 1000 nM. Next, `Cc1cccc2c(=O)[nH]c(CS[C@@H]3CC[C@@H](CCN)C3)nc12` (relative stereo) [Example 183, 2-((((trans)-3-(2-aminoethyl)cyclopentyl)thio)methyl)-8-methylquinazolin-4(3H)-one]: 1000 to 10000 nM. For the molecule `O=c1[nH]c(CS[C@H]2CC[C@@H](CO)CC2)nc2cc(NC3CCCCC3)ccc12` [Example 137, 7-(Cyclohexylamino)-2-(((cis-4-(hydroxymethyl)cyclohexyl)thio)methyl) quinazolin-4(3H)-one], the IC50 is under 1000 nM. Regarding `O=c1[nH]c(CS[C@H]2CC[C@H](O)CC2)nc2cc(NC3CCCC3)ccc12` [Example 102, 7-(Cyclopentylamino)-2-(((trans-4-hydroxycyclohexyl)thio)methyl) quinazolin-4(3H)-one], the IC50 is under 1000 nM.

Take `CC(=O)Nc1ccc(CN2CCC(SCc3nc4c(C)cccc4c(=O)[nH]3)CC2)cc1` [Example 139, N-(4-((4-(((8-Methyl-4-oxo-3,4-dihydroquinazolin-2-yl)methyl)thio)piperidin-1-yl)methyl)phenyl)acetamide trifluoroacetate]: the IC50 is under 1000 nM.

With `O=c1[nH]c(CSC2CCNCC2)nc2cc(OCC3CCC3)cc(F)c12` [Example 280, 7-(Cyclobutylmethoxy)-5-fluoro-2-((piperidin-4-ylthio)methyl)quinazolin-4(3H)-one 2,2,2-trifluoroacetate], the IC50 was under 1000 nM. Next, `CN1CCC(COc2cc(F)c3c(=O)[nH]c(CSC4CCOCC4)nc3c2)C(F)(F)C1` (centres unmarked) [Example 427]: under 1000 nM; `O=c1[nH]c(CS[C@H]2CC[C@H](O)CC2)nc2cc(N[C@@H]3CCCOC3)c(F)c(F)c12` [Example 381]: under 1000 nM. Under `O=c1[nH]c(CS[C@H]2CC[C@@H](CO)CC2)nc2cc(Nc3ccccc3)ccc12` [Example 105, 2-(((cis-4-(Hydroxymethyl)cyclohexyl)thio)methyl)-7-(phenylamino) quinazolin-4(3H)-one] stands under 1000 nM. In turn, `O=c1[nH]c(CSC2CCNCC2)nc2cc(NCC3CC3(F)F)cc(F)c12` (centres unmarked) [Example 262, 7-(((2,2-Difluorocyclopropyl)methyl)amino)-5-fluoro-2-((piperidin-4-ylthio)methyl)quinazolin-4(3H)-one] showed an IC50 of under 1000 nM. Under `O=c1[nH]c(CS[C@H]2CC[C@H](O)CC2)nc2cc(N[C@H]3CCC[C@@H]3F)cc(F)c12` (relative stereo) [Example 340] stands under 1000 nM; under `CC(=O)N[C@H]1CC[C@@H](SCc2nc3cc(OCC4CC4)cc(F)c3c(=O)[nH]2)CC1` [Example 329, N-((cis)-4-(((7-(Cyclopropylmethoxy)-5-fluoro-4-oxo-3,4-dihydroquinazolin-2-yl)methyl)thio)cyclohexyl)acetamide], under 1000 nM. On to `Cc1cccc2c(=O)[nH]c(CS[C@H]3CC[C@H](O)CC3)nc12` [Example 23, 2-((((trans)-4-Hydroxycyclohexyl)thio)methyl)-8-methylquinazolin-4(3H)-one], for which the IC50 is under 1000 nM.

As to `O=c1[nH]c(CSC2CCOCC2)nc2cc(F)ccc12` [Example 30, 7-Fluoro-2-(((tetrahydro-2H-pyran-4-yl)thio)methyl)quinazolin-4(3H)-one], the IC50 fell in the range of 1000 to 10000 nM.

`Cc1cccc2c(=O)[nH]c(CS[C@H]3CC[C@@H](C(N)=O)CC3)nc12` [Example 204, cis-4-(((8-Methyl-4-oxo-3,4-dihydroquinazolin-2-yl)methyl)thio)cyclohexane-1-carboxamide] registered an IC50 of 1000 to 10000 nM. Next, `Cc1cccc2c(=O)[nH]c(CSC3CCN(S(C)(=O)=O)CC3)nc12` [Example 174, 8-Methyl-2-(((1-(methylsulfonyl)piperidin-4-yl)thio)methyl)quinazolin-4(3H)-one]: under 1000 nM; `CC(C)(O)C(=O)N1CCC(SCc2nc3cc(NC4CCCC4)cc(F)c3c(=O)[nH]2)CC1` [Example 279, 7-(Cyclopentylamino)-5-fluoro-2-(((1-(2-hydroxy-2-methylpropanoyl)piperidin-4-yl)thio)methyl)quinazolin-4(3H)-one]: under 1000 nM. Under `Cc1cccc2c(=O)[nH]c(CS[C@@H]3CCC[C@H](CN(C)C)C3)nc12` (relative stereo) [Example 72, 2-((((cis)-3-((Dimethylamino)methyl)cyclohexyl)thio)methyl)-8-methyl quinazolin-4(3H)-one Trifluoroacetate] stands over 10000 nM; under `CC(C)(COc1cc(F)c2c(=O)[nH]c(CSC3CCOCC3)nc2c1)C(F)(F)F` [Example 421], under 1000 nM; under `CC(=O)N1CCC(CNc2cc3nc(CS[C@H]4CC[C@H](O)CC4)[nH]c(=O)c3c(F)c2F)CC1` [Example 419], under 1000 nM.

`O=c1[nH]c(CSC2CCC(O)CC2)nc2cc(Nc3ccccc3)ccc12` (centres unmarked) [Example 97, 2-(((4-Hydroxycyclohexyl)thio)methyl)-7-(phenylamino)quinazolin-4(3H)-one]: the IC50 lay in the range of 1000 to 10000 nM. Next, `Cc1cccc2c(=O)[nH]c(CSC3CCCN(C)C3)nc12` (centres unmarked) [Example 32, 8-Methyl-2-(((1-methylpiperidin-3-yl)thio)methyl)quinazolin-4(3H)-one]: 1000 to 10000 nM; `O=c1[nH]c(CSC2CCOCC2)nc2cc(NC3CCN(C4COC4)CC3)cc(F)c12` [Example 302, 5-Fluoro-7-((1-(oxetan-3-yl)piperidin-4-yl)amino)-2-(((tetrahydro-2H-pyran-4-yl)thio)methyl)quinazolin-4(3H)-one]: under 1000 nM.

`O=c1[nH]c(CSC2CCOCC2)nc2cc(NC3CCNCC3)ccc12` [Example 129, 7-(Piperidin-4-ylamino)-2-(((tetrahydro-2H-pyran-4-yl)thio)methyl) quinazolin-4(3H)-one] returned an IC50 of 1000 to 10000 nM. Under `Cc1cccc2c(=O)[nH]c(CSC3CCN(CCc4ccccc4)CC3)nc12` [Example 147, 8-Methyl-2-(((1-phenethylpiperidin-4-yl)thio)methyl)quinazolin-4(3H)-one trifluoroacetate] stands under 1000 nM; under `O=c1[nH]c(CS[C@H]2CCNC[C@@H]2F)nc2cc(NC3CCCC3)cc(F)c12` (relative stereo) [Example 210, 7-(Cyclopentylamino)-5-fluoro-2-(((trans-3-fluoropiperidin-4-yl)thio)methyl)quinazolin-4(3H)-one Hydrochloride], under 1000 nM.
